The test system of experiment [1] is primary neuronal cultures. Description: Oxidative stress detection with CellROX green reagent after glutamate. In kind it is cell-based, mouse. As to conditions: 20 µM glutamate 1 hour, UNC0642 pre-treatment. As for the experimental part: (§1) For primary cortical cultures pregnant C57BL/6J, or G9afl/fl;Snap25-Cre mice were euthanized. To ensure comparability between genotypes, only embryos from heterozygous breeding's were used. Brainstem tissue of each embryo for genotyping was reserved and cortices were isolated, dissociated and cells were plated at a density of 1 × 10^5 cells per 1 cm^2 on poly-D-lysine-coated wells (5 µM Sigma-Aldrich, cat. no. A-003-M). If not stated otherwise, cells were maintained in neurobasal plus medium (supplemented with B27 plus, penicillin, streptomycin and L-glutamine; Gibco, cat. no. A3582901) at 37°C, 5% CO^2 and a relative humidity of 98%, and treated with 1 µM cytarabine (Sigma-Aldrich, cat. no. BP383) at 1 day in vitro (div) to inhibit glial cell proliferation. If no cytarabine was applied cells were maintained in PNBM medium (supplemented with neural cell survival factor, gentamycin and L-glutamine; Lonza). Throughout, cultures after 14-23 div were used for experiments. G9a inhibitor UNC0642 was used in a concentration of 1 µM and cultures were pre-treated 24 hours before further experimental procedures.
For the detection of oxidative stress in response to glutamate treatment, CellROX green reagent (Thermofisher) was used. […] Immunofluorescence of nuclear CellROX dye was quantified using Fiji (ImageJ).

The subject of a further experiment is primary neurons. The experiment is described as follows: Cell death induction, dead neurons with CellTox green reagent. In kind it is cell-based, mouse. The note with it: 1 µM UNC0642 pre-treated 24 hours. On the procedure: as §1
Primary neurons were subjected to dedicated compounds initiating either apoptosis (stauro-sporine), necroptosis (TNF-α + LCL-161 + Z-VAD-FMK, or shikonin), or ferroptosis (RSL3, or erastin) for 48 h in G9afl/fl;Snap25-Cre cultures, or cultures pre-treated for 24 hours with 1 µM UNC0642. Together with the cell death inducing compounds, CellToxTM Green Cytotoxicity Assay (Promega) was added to primary neurons 1:2000. Before fixation with 4% paraformaldehyde, cells were counterstained with Hoechst […]. Neurons were imaged on a Zeiss LSM 700 confocal microscope using 20× magnification.

A further experiment concerns cyclooxygenase-2 (COX-2). The experiment is described as follows: COX-2 immunostaining after glutamate stimulation. In kind it is cell-based, mouse. The note with it: glutamate excitotoxicity ± UNC0642. As for the experimental part:
as §1
Immunocytochemistry was performed as described previously (15). […] Immunostainings were analyzed with a Zeiss LSM 700 confocal microscope.

For a further experiment, the system named is glutathione. The experiment is described as follows: GSH-Glo glutathione measurement after glutamate. In kind it is cell-based, mouse. As to conditions: primary cortical neurons, glutamate 2 hours, UNC0642-treated. On the procedure:
as §1
GSH-Glo Glutathione assay (Promega) was used as described by the manufacturer. Primary cortical neurons were cultured in a 96-well plate and stimulated with glutamate for 2 hours. […] After 15 min, luminescence was detected at a Spark 10M multimode microplate reader (Tecan).

The target of another experiment is T1, G9a (Mus musculus, UniProt Q9Z148).
T1 construct: UNC0642 pre-treated primary neuronal cultures compared to respective controls; endogenous in cells; host or cells: primary mouse cortical neuronal cultures (C57BL/6J embryos)
T1 sequence (Q9Z148 1-1263): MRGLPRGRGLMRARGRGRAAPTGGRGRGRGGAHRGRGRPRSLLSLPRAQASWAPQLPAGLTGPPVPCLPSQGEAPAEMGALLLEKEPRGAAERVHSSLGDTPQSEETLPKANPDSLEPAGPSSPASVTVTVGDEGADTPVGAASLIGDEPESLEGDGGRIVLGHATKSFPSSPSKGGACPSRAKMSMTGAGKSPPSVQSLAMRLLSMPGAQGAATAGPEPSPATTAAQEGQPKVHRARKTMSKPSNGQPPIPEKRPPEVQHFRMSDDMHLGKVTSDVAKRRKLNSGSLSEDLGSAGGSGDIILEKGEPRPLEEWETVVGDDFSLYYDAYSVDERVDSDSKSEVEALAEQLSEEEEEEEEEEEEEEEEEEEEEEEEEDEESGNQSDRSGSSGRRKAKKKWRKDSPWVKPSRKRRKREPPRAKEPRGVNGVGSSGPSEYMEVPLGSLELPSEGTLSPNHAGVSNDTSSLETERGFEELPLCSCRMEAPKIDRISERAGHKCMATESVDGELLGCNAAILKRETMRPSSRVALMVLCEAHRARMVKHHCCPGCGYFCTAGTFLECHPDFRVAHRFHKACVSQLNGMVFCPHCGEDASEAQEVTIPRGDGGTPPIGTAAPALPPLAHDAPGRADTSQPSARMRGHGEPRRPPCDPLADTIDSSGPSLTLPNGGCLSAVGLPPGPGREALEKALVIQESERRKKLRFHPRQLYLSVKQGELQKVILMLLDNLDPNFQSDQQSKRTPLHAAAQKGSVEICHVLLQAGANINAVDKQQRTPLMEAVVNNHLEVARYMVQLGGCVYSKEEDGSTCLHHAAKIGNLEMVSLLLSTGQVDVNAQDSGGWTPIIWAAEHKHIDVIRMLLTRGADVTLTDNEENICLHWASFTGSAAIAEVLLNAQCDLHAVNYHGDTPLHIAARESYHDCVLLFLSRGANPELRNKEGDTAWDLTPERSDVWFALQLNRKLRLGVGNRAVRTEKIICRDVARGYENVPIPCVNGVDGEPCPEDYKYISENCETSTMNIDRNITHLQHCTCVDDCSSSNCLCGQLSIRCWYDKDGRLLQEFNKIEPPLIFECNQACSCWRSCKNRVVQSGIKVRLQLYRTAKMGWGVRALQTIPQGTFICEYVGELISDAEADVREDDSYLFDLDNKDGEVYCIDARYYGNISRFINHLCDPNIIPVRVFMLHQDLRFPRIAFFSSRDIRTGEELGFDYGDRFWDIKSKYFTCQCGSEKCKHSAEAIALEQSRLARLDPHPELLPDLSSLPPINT
The experiment is described as follows: Flow cytometry of H3K9me2 in spinal cord neuronal nuclei of EAE mice. In kind it is in vivo. As to conditions: EAE animals, 5 mg kg-1 UNC0642. On the technique in general: A flow cytometer gives signals particle by particle.

The subject of another experiment is anti-ferroptotic genes. Description: qPCR of ferroptosis-related genes in sorted spinal cord neuronal nuclei of EAE mice. The note with it: EAE + UNC0642 vs. EAE. In kind it is in vivo, mouse. (In general: Quantitative PCR measures a nucleic acid by following its amplification.)

Structures are written as SMILES.

As to `COc1cc2c(NC3CCN(C(C)C)CC3)nc(N3CCC(F)(F)CC3)nc2cc1OCCCN1CCCC1` [UNC0642, 2-(4,4-difluoropiperidin-1-yl)-6-methoxy-N-[1-(propan-2-yl)piperidin-4-yl]-7-[3-(pyrrolidin-1-yl)propoxy]quinazolin-4-amine], in experiment [1], the “generation of ROS (CellROX green)” value was “reduced the generation of ROS close to baseline levels”. Also, in the experiment on primary neurons (48 h inducer), the “ferroptosis (dead neurons) induced by RSL3” value was “substantially rescued” and the “ferroptosis (dead neurons) induced by erastin” value was “substantially rescued”. In addition, the “necroptosis (dead neurons)” value in the experiment on primary neurons (TNF-α + LCL-161 + Z-VAD-FMK, or shikonin, 48 h) was “neither apoptosis nor necroptosis was affected”. Also, the “apoptosis (dead neurons)” value in the experiment with primary neurons (staurosporine 48 h) was “neither apoptosis nor necroptosis was affected”. In addition, in the experiment with cyclooxygenase-2 (COX-2), the “induction of COX-2-positive cells” value was “almost completely abolished its induction”. Moreover, the glutathione levels entry in the experiment on glutathione is “partial rescue of glutathione levels”. Moreover, the “H3K9me2 levels in neuronal nuclei” value on G9a is reported as “complete normalization of H3K9me2 levels”. For the same compound, in the experiment on anti-ferroptotic genes, the “mRNA expression of Cbs” value is listed as “significantly boosted the expression”, the “mRNA expression of Gclc” value is “significantly boosted the expression”, the “mRNA expression of Gpx4” value was “significantly boosted the expression” and the “mRNA expression of Nfe212” value was “significantly boosted the expression”. For the same compound, the “mRNA expression of multiple glutathione S-transferases” value with anti-ferroptotic genes is on record as “derepression”.

These data come from patent EP4268823A1, “COMPOUND FOR TREATING NEUROINFLAMMATION” (Universitätsklinikum Hamburg-Eppendorf, priority 2022, dated 2023).
